We go through one compound from US12063933B1, “Antimicrobial compositions including copper(I) salts and additives” (CORNING INCORPORATED, priority 2023, dated 2024).

The subject of the assay is Staphylococcus aureus (ATCC 6538). As to the kind of experiment: EPA Test antimicrobial efficacy (log kill) of films/coupons. The format is cell-based.

On to `CCOP(OCC)OCC.[Cu][I]` [CuI(TEP), iodo(triethyl phosphite)copper(I)], for which the antimicrobial efficacy result was “essentially full kill”.
